Experimental data published in patent US20110313672A1, “CELLULAR ANTIOXIDANT ACTIVITY (CAA) ASSAY” (CORNELL UNIVERSITY, priority 2007, published 2011).
Where “and” joins values, the source holds several entries; their conditions need not be identical. Identical values can stand only once. Entries after “also recorded” stand apart in the source; their conditions may differ. Like-named read-outs stand apart in the source and are kept apart here.

Experiments:
HepG2 cells [1] = assay: in vitro; settings: human, 24 h
Method: (§1) Briefly, HepG2 cells are seeded at 4×10^4/well on a 96-well plate in 100 μL growth medium and incubated for 24 h at 37° C. The medium is removed and the cells are washed with PBS. Treatments of fruit extracts or antioxidant compounds in 100 μL treatment medium (Williams' Medium E supplemented with 2 mM L-glutamine and 10 mM Hepes) are applied to the cells and the plates are incubated at 37° C. for 24 h. The treatment medium is removed and the cells are washed with PBS. A volume of 50 μL/well methylene blue staining solution (98% HBSS, 0.67% glutaraldehyde, 0.6% methylene blue) is applied to each well and the plate is incubated at 37° C. for 1 h.
(§2) Excess dye is removed by immersing the plate in fresh deionized water until the water appears clear. The excess water should be tapped out of the wells and the plate allowed to air-dry briefly before addition of 100 μL elution solution (49% PBS, 50% ethanol, 1% acetic acid) to each well. The microplate is then placed on a bench-top shaker for 20 minutes to allow uniform elution. The absorbance is read at 570 nm with blank subtraction using, for example a MRX II DYNEX spectrophotometer (DYNEX Inc., Chantilly, Va.). Concentrations of pure compounds or fruit extracts that decrease the absorbance by more than 10% when compared to the control are considered to be cytotoxic.
(§3) Cytotoxicity was measured using the method of Oliver et al. (31) with modifications by our laboratory (32). […] The medium was removed and the cells were washed with PBS. Treatments of fruit extracts or antioxidant compounds in 100 μL treatment medium (Williams' Medium E supplemented with 2 mM L-glutamine and 10 mM Hepes) were applied to the cells and the plates were incubated at 37° C. for 24 h. The treatment medium was removed and the cells were washed with PBS. A volume of 50 μL/well methylene blue staining solution (98% HBSS, 0.67% glutaraldehyde, 0.6% methylene blue) was applied to each well and the plate was incubated at 37° C. for 1 h. The dye was removed and the plate was immersed in fresh deionized water three times, or until the water was clear. The water was tapped out of the wells and the plate was allowed to air-dry briefly before 100 μL elution solution (49% PBS, 50% ethanol, 1% acetic acid) was added to each well. The microplate was placed on a bench-top shaker for 20 minutes to allow uniform elution. The absorbance was read at 570 nm with blank subtraction using the MRX II DYNEX spectrophotometer (DYNEX Inc., Chantilly, Va.). Concentrations of pure compounds or fruit extracts that decreased the absorbance by more than 10% when compared to the control were considered to be cytotoxic.
(§4) The median cytotoxic concentration (CC50) was calculated for each fruit.
(§5) Briefly, HepG2 cells were seeded at 4×10^4/well on a 96-well plate in 100 μL growth medium and incubated for 24 h at 37° C. The medium was removed, and the cells were washed with PBS. Flavonoids in 100 μL growth medium were applied to the cells, and the plates were incubated at 37° C. for 24 h. The medium was removed, and the cells were washed with PBS before a volume of 50 μL/well methylene blue staining solution (98% HBSS, 0.67% glutaraldehyde, 0.6% methylene blue) was applied to each well, and the plate was incubated at 37° C. for 1 h. The dye was removed, and the plate was immersed in fresh deionized water until the water was clear. The water was tapped out of the wells, and the plate was allowed to air-dry briefly before 100 μL of elution solution (49% PBS, 50% ethanol, 1% acetic acid) was added to each well. The microplate was placed on a benchtop shaker for 20 min to allow uniform
(§6) elution. The absorbance was read at 570 nm with blank subtraction using the MRX II Dynex spectrophotometer (Dynex Inc., Chantilly, Va.). The median cytotoxic concentration (CC50) was calculated for each flavonoid.

HepG2 cells [2] = assay: Cellular antioxidant activity (CAA) assay: inhibition of peroxyl radical-induced DCFH oxidation; format: cell-based, human; settings: for CAA value / percent of the antioxidant activity of quercetin in the CAA assay: Example 1; for CAA value: pure compounds, EC50 converted to quercetin equivalents; for percent of the antioxidant activity of quercetin in the CAA assay: summary statement
Method: Cells (e.g., human hepatocellular carcinoma cells; HepG2) are seeded at a density of e.g., 6×10^4/well on a 96-well microplate in 100 μL growth medium/well. It is preferred that only the inside wells of e.g., a 96-well microplate are used for the assay, since the outer wells have increased variation compared to that of the inner wells. Twenty-four hours after seeding the growth medium is removed and the wells are washed with PBS. Triplicate wells are treated for 1 h with 100 μL of a test compound (e.g., pure phytochemical compounds or fruit extracts) plus 25 μM DCFH-DA dissolved in treatment medium.
600 μM ABAP is then applied to the cells in 100 μL HBSS and the 96-well microplate is placed into a plate reader e.g., Fluoroskan Ascent FL plate-reader (ThermoLabsystems, Franklin, Mass.) at 37° C. Emission at 538 nm is measured with excitation at 485 nm, for example every 5 min for 1 h. Each plate should include triplicate control and blank wells: control wells contain cells treated with DCFH-DA and oxidant; blank wells contain cells treated with dye and HBSS without oxidant.
A test compound is assayed in multiple wells of e.g., a 96-well cell culture plate. Some wells are washed with 100 μL of phosphate-buffered saline (PBS) prior to the addition of ABAP, while other wells were not washed prior to the addition of ABAP. It was noted that the measured antioxidant activity of some fruit extracts (e.g., blueberries) was different when a PBS wash was used compared to when there was no PBS wash (see Table 2; FIGS. 3 and 4). This is likely due to non-specific binding of certain antioxidant compounds to the outer membrane, or a reduced uptake of the compound, thus the ratio of antioxidant activity values obtained with a PBS wash compared to a non-PBS wash indicates the bioavailability of the test compound. In order to accurately measure the intracellular antioxidant activity of a test compound, a PBS wash prior to the addition of a peroxyl initiator (e.g, ABAP) is necessary. The values obtained for cells assayed using a PBS wash should be compared to values obtained for the same cells assayed without a PBS wash. One of skill in the art can plan and perform experiments on a test compound in the presence and absence of a PBS wash, in order to accurately assess the intracellular antioxidant capacity of the test compound.
After blank subtraction from the fluorescence readings, the area under the curve of fluorescence versus time is integrated to calculate the cellular antioxidant activity (CAA) value at each concentration of pure phytochemical compound or fruit extract as follows:
where ∫SA is the integrated area under the sample fluorescence versus time curve and ∫CA is the integrated area from the control curve. The median effective dose (EC50) was determined for the pure phytochemical compounds and fruit extracts from the median effect plot of log (fa/fu) vs. log (dose), where fa is the fraction affected and fu is the fraction unaffected by the treatment. To quantify intra-experimental variation, the EC50 values are stated as mean±SD for triplicate sets of data obtained from the same experiment. Inter-experimental variation is obtained for some representative pure phytochemical compounds and fruit extracts by averaging the fluorescence values from triplicate wells in each trial to obtain one EC50 value per experiment and calculating the mean±SD for at least four trials. In each experiment, a standard is used, for example quecetin, thus permitting the cellular antioxidant activities for a test compounds to be expressed as μmol quercetin equivalents (QE)/100 μmol compound. Fruit extracts are expressed as μmol QE/100 g fruit. In order to compare the antioxidant quality of different fruits, cellular antioxidant activity (CAA) is also calculated as μmol QE/100 μmol total phenolics.
Human hepatocellular carcinoma HepG2 cells were seeded at a density of 6×10^4/well on a 96-well microplate in 100 μL growth medium/well. […]

[3] = Oxygen radical absorbance capacity (ORAC) assay; settings: Example 3; flavonoids; mean ± SD, n ≧ 3
Method: The peroxyl radical scavenging efficacy of selected fruits was measured using the ORAC assay (Prior, R. L., et al (2003) J. Agric. Food Chem. 51:3273-3279). Briefly, 20 μL of blank, Trolox standard, or fruit extracts in 75 mM potassium phosphate buffer, pH 7.4 (working buffer), was added to triplicate wells in a black, clear-bottom, 96-well microplate. The triplicate samples were distributed throughout the microplate and were not placed side-by-side, to avoid any effects on readings due to location. In addition, no outside wells were used, as use of those wells results in greater variation. A volume of 200 μL of 0.96 μM fluorescein in working buffer was added to each well and incubated at 37° C. for 20 min, with intermittent shaking, before the addition of 20 μL of freshly prepared 119 mM ABAP in working buffer using a 12-channel pipetter. The microplate was immediately inserted into a Fluoroskan Ascent FL plate reader (ThermoLabsystems) at 37° C. The decay of fluorescence at 538 nm was measured with excitation at 485 nm every 4.5 min for 2.5 h. The areas under the fluorescence versus time curve for the samples minus the area under the curve for the blank were calculated and compared to a standard curve of the areas under the curve for 6.25, 12.5, 25, and 50 μM Trolox standards minus the area under the curve for blank. ORAC values were expressed as mean micromoles of Trolox equivalents (TE) per 100 g of fruit±SD for triplicate data from one experiment.
ORAC measurements were performed as described herein in Example 2.

in vitro = settings: human
Method: as §1, §2, §3, §4, §5, §6

[4] = Homo sapiens, HepG2, Example 1, Table 1, PBS wash, pure phytochemical compounds, mean ± SD, n=3, read-out: EC50 for inhibition of peroxyl radical-induced DCFH oxidation
[5] = Homo sapiens, HepG2, Example 1, Table 1, no PBS wash, pure phytochemical compounds, mean ± SD, n=3, read-out: EC50 for inhibition of peroxyl radical-induced DCFH oxidation
[6] = CAA assay, either protocol or protocol not specified
[7] = Example 3, Table 7, PBS wash, flavonoids, mean ± SD, n=3
[8] = Example 3, Table 7, no PBS wash, flavonoids, mean ± SD, n=3

EC50 (HepG2 cells [2]; [4])	EC50 (HepG2 cells [2]; [5])	EC50 (HepG2 cells [2]; [7])	EC50 (HepG2 cells [2]; [8])	Molecule	Cytotoxicity (cytotoxic concentration) (HepG2 cells [1])	CAA value (HepG2 cells [2]; no PBS wash)	percent of the antioxidant activity of quercetin in the CAA assay (HepG2 cells [2])	ORAC [3]	cellular antioxidant activity, result in words (HepG2 cells [2]; [6])	other results
335 ± 26 µM	65.4 ± 7.3 µM			O=C(O)c1cc(O)c(O)c(O)c1 [Gallic acid]	>500 µM	9.08±0.95 μmol QE/100 μmol	less than ten percent			EC50 (HepG2 cells [2]; Homo sapiens, HepG2, Table 2, no PBS wash, mean ± SD over the trials, read-out: Interexperimental EC50): 64.3 ± 10.7 µM; EC50 (HepG2 cells [2]; Homo sapiens, HepG2, Table 2, no PBS wash, one line per trial (trials 1-5), n=3, read-out: Intraexperimental EC50): 65.4 ± 7.3 µM; EC50 (HepG2 cells [2]; Homo sapiens, HepG2, Table 3, PBS wash, mean ± SD over the trials, read-out: Interexperimental EC50): 318 ± 36 µM; EC50 (HepG2 cells [2]; Homo sapiens, HepG2, Table 3, PBS wash, one line per trial (trials 1-5), n=3, read-out: Intraexperimental EC50): 289 ± 12 µM
		no activity	no activity	O=c1cc(-c2ccc(O)cc2)oc2cc(O)cc(O)c12 [apigenin]				10.7 ± 1.5 bc μmol of TE/μmol	no cellular antioxidant activity; also recorded: no CAA	CC50 at 24 h (in vitro): > 80 µM
		no activity	no activity	O=c1cc(-c2ccccc2)oc2cc(O)cc(O)c12 [chrysin]					no activity	CC50 at 24 h (in vitro): > 200 µM
		no activity	no activity	O=c1c(-c2ccc(O)cc2)coc2cc(O)ccc12 [daidzein]				8.52 ± 2.11 cde μmol of TE/μmol	no cellular antioxidant activity	CC50 at 24 h (in vitro; HepG2 cells): > 100 µM
		no activity	no activity	C[C@@H]1O[C@@H](OC[C@H]2O[C@@H](Oc3c(-c4ccc(O)c(O)c4)oc4cc(O)cc(O)c4c3=O)[C@H](O)[C@@H](O)[C@@H]2O)[C@H](O)[C@H](O)[C@H]1O [rutin]					no activity	CC50 at 24 h (in vitro; HepG2 cells): > 200 µM

The next lines start with the molecule.

Molecule	EC50 (HepG2 cells [2]; [4])	EC50 (HepG2 cells [2]; [5])	EC50 (HepG2 cells [2]; [7])	EC50 (HepG2 cells [2]; [8])	Cytotoxicity (cytotoxic concentration) (HepG2 cells [1])	CAA value (HepG2 cells [2]; no PBS wash)	percent of the antioxidant activity of quercetin in the CAA assay (HepG2 cells [2])	ORAC [3]	cellular antioxidant activity, result in words (HepG2 cells [2]; [6])	other results
O=C1O[C@H]([C@@H](O)CO)C(O)=C1O [Ascorbic acid, ascorbic acid]	> 500 µM	67.5 ± 9.4 µM			>500 µM	8.84±1.18 μmol QE/100 μmol	less than ten percent			cellular antioxidant activity, result in words (HepG2 cells [2]; PBS wash protocol): low
O=C(O)/C=C/c1ccc(O)c(O)c1 [Caffeic acid, caffeic acid]	525 ± 38 µM	95.3 ± 15.3 µM			>500 µM	5.59±0.70 μmol QE/100 μmol	less than ten percent			
COc1cc(/C=C/C(=O)O)ccc1O [Ferulic acid, ferulic acid]	> 500 µM	> 250 µM			>500 µM					cellular antioxidant activity, result in words (HepG2 cells [2]; no PBS wash protocol): low activity within the doses tested
(+)-catechin						2.03±0.24 μmol QE/100 μmol	less than ten percent	12.4±4.0 μmol of TE/μmol and 12.4 ± 4.0 ab μmol of TE/μmol	low or no cellular antioxidant activity; also recorded: low CAA	EC50 (HepG2 cells [2]; Example 1, Table 1, PBS wash, pure phytochemical compounds, mean ± SD, n=3, read-out: EC50 for inhibition of peroxyl radical-induced DCFH oxidation): > 500 µM; EC50 (HepG2 cells [2]; Example 1, Table 1, no PBS wash, pure phytochemical compounds, mean ± SD, n=3, read-out: EC50 for inhibition of peroxyl radical-induced DCFH oxidation): 292 ± 32 µM; EC50 (HepG2 cells [2]; Example 3, Table 7, PBS wash, flavonoids, mean ± SD, n=3, read-out: EC50): > 800 µM; CAA (HepG2 cells [2]; Example 3, Table 7, no PBS wash): 2.5 ± 0.1 μmol of QE/100 μmol; EC50 (HepG2 cells [2]; Example 3, text, no PBS wash, read-out: EC50): 360 ± 17 µM; cellular antioxidant activity, result in words (HepG2 cells [2]; PBS wash protocol): very low, unquantifiable, activity; cellular antioxidant activity, result in words (HepG2 cells [2]; PBS wash protocol, listed as catechin): low and low activity at the concentrations tested
